Consider nine molecules from ChEMBL document CHEMBL5325494, “Glycogen synthase kinase-3: A potential target for diabetes” (Bioorg Med Chem, 2023).

Test [1] concerns the target T1, Glycogen synthase kinase-3 beta (Homo sapiens, UniProt P49841). As to the kind of experiment: Inhibition of GSK-3beta (unknown origin).
Another test has as its system PC-12. As to the kind of experiment: Neuroprotective activity against CORT-induced damage in rat PC-12 cells measured after 24 hrs by MTT assay. In kind it is functional, cell-based. As to conditions: PC-12, 24 h. (In general: Tetrazolium dyes change colour on reduction, which living cells bring about.)
The target of test [2] is T1, Glycogen synthase kinase-3 beta. Kind of test: Binding affinity to full length GST-tagged human recombinant GSK-3beta (1 to 420 residues) expressed in Escherichia coli assessed as inhibition constant.
Test [3] shares this target. As to the kind of experiment: Inhibition of human wildtype full length GSK-3beta.
Test [4] shares this target. Kind of test: Inhibition of full length GST-tagged human recombinant GSK-3beta (1 to 420 residues) expressed in Escherichia coli.
Test [5] shares this target. As to the kind of experiment: Inhibition of GSK-3beta (unknown origin) incubated for 1 hr by HTRF assay. (In general: In TR-FRET formats the signal depends on donor and acceptor labels being close together.)
The target is the same in test [6]. Kind of test: Inhibition of human GSK-3beta.

T1 sequence (P49841 whole entry): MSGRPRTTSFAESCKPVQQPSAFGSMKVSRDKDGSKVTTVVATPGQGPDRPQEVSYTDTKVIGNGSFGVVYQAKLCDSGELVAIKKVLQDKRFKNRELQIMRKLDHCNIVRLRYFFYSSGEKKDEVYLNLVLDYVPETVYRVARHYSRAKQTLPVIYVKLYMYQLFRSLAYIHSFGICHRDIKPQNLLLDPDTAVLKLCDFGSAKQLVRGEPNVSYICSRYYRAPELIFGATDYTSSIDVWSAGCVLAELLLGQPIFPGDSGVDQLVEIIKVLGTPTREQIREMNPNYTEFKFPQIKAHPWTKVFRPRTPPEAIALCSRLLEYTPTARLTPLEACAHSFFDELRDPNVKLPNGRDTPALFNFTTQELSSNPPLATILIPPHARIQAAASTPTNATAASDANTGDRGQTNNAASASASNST

The term IC50 denotes the concentration that inhibits the measured activity by half. `Nc1nc(NCCNc2ncc(-c3ncc[nH]3)c(-c3ccc(Cl)cc3Cl)n2)ccc1[N+](=O)[O-]` registered a concentration for half-maximal inhibition (IC50) in test [1] of 0.06 nM.

In turn, `CN1CCN(c2ccc(NCCNc3ccc([N+](=O)[O-])c(N)n3)nc2-c2ccc(Cl)cc2Cl)C(=O)C1` registered a half-inhibitory concentration (IC50) in test [1] of 8 nM. In general, EC50 refers to the concentration needed to bring the measured effect to its halfway point. The low end stands for a more potent agent, the high end for a less potent agent. For the molecule `N#C[C@@H](CC1=NN2C(N)=NC(NC3CCCCC3)=NC2N1)C(N)=O` (some centres undefined), in the test with PC-12, the midpoint of the response, the EC50, lay at 3 nM. What is called Ki is the equilibrium dissociation constant of an inhibitor or competing ligand from its target. On to `COCCNC(=O)c1nc(-c2ccc(S(=O)(=O)N3C=CN(C)CC3)cc2)cnc1N`, for which the inhibition constant (Ki) in test [2] is 90 nM. In turn, `COc1ccccc1-c1c2c(nc3[nH]nc(C)c13)CC(C)(C)CC2=O` had an IC50 in test [3] of 54 nM.

For the molecule `Nc1ncc(-c2ccc(S(=O)(=O)N3C=COCC3)cc2)nc1C(=O)Nc1cccnc1`, the IC50 in test [4] was 10 nM. In test [1], `O=C(O)C1=CN2C3C(=C(NCCNc4ccccn4)C(F)=CC3C1=O)OCCC21CCC1` (centres undefined) returned a 50% inhibitory concentration (IC50) of 36 nM.

As for `COCCN1CCC(CNC(=O)c2ncc3ccc(-c4cncc(OC(C)C)c4)cn23)CC1`, in test [5], 9 nM corresponded to half-maximal inhibition (IC50).

Consider `CC(/C=C1\SC(=S)N(CC(=O)O)C1=O)=C\c1ccccc1`, for which the IC50 in test [6] was found to be 21 nM.
